Entries after “also recorded” stand apart in the source; their conditions may differ.
Assays:
dopaminergic neurons = assay: DA neurodegeneration analysis in α-syn transgenic worms; format: in vivo, C. elegans; conditions: for protection from α-syn-induced dopaminergic neurodegeneration: 7 day old worms overexpressing human cDNA with α-syn
Method: For the DA neurodegeneration analysis, strain UA54 [baEx45; Pdat-1::α-syn, Pddat-1::gfp, Pdat-1 j::CD, rol-6 (su1006)], UA90 [baEx69; Pdat-1::α-syn, Pdat-1j::CD D295R, rol-6 (su1006)], UA91 [baEx70; Pdat-1::α-syn, Pdat-1::CD F2291, rol-6 (su1006)], UA53 [baEx44; Pdat-1::α-syn, rol-6 (su1006)], and UA55 [baEx46; Pdat-1::α-syn, Pdat-1::CL, rol-6 (su1006)] were generated by injecting 50 μg/ml of expression plasmid containing the human cathepsin cDNA and 50 μg/ml of rol-6 into an integrated line of UA44 [baInl1; Pdat-1::α-syn, (Cao et al., J. Neurosci. 25:3801-12 (2005))]. Three stable lines were randomly selected for neurodegeneration analysis. The 6 anterior DA neurons (4 CEP and 2 ADE neurons) of 30 animals/trial were examined for neurodegeneration when the animals were 7 days old. 90 animals from each of three CD (or CD D295R, CD F229I, CB, and CL) transgenic lines were analyzed (3 lines×3 trials of 30 animals/trial=270 total animals scored).
It was further investigated whether human CD attenuates the loss of dopaminergic neurons in a C. elegans model of α-syn-induced neurodegeneration (Cooper et al., Science 313:324-8 (2006)).

SHSY5Y cells = assay: Cell death/survival after transfection, trypan blue exclusion; format: cell-based, human
Method: (§1) Cell culture and transfection: The human neuroblastoma SHSY5Y cells were transfected in triplicate by vector alone, GFP-α-syn, pCMV-CD, or co-transfected by GFP-α-syn (or A53T, MOP, Y125A mutant α-syn) and pCMV-CD (or mutant CD) by Amaxa method as described by the vendor. Transfection efficiency was ˜80% as assessed by cells with or without GFP. Seventy-two (72) hours after transfection, cells were harvested. For chloroquine (10 μM) treatment, the chemicals were added 48 hours after transfection, cells were harvested […]. Live cells were counted by trypan blue exclusion. Relative cell survival was calculated as number of live cells after transfection by pCMV-CD and/or GFP-α-syn divided by live cells after transfection by vector alone. Elevated expression of α-syn or cathepsins was confirmed by Western blot analyses using whole cell extracts.
Overexpression of CD is neuroprotective against α-syn toxicity in mammalian cells. Excessive α-syn induces neuron death in cell cultures, and in a variety of genetic and viral delivery based animal models. To examine the potential of elevating CD level as a means to reduce α-syn-induced cell death, human neuroblastoma SHSY5Y cells were transfected with α-syn, in the absence or presence of increased CD expression (FIG. 4B). Similar to previous studies of α-syn overexpression in yeast, worms and rat neurons, it was observed that overexpression of wildtype α-syn induced robust cell death in SHSY5Y cells.
α-syn point mutation at the major CD cleavage site results in resistance to CD neuroprotection. α-syn is rich in hydrophobic amino acids (52%) and is natively unfolded. CD has a known specificity in recognizing hydrophobic residues. Although α-syn contains many putative CD cleavage sites, the main cleavage occurs at A124-Y125 (Hossain et al., J. Alzheimers Dis. 3:577-584 (2001)). It was observed that CD is also protective against PD-causing mutant α-syn induced-cell death in SHSY5Y cells (FIG. 4D). […] Furthermore, CD is ineffective at attenuating chloroquine- or staurorosporine-induced cell death (FIG. 4D).

α-syn = assay: Western blot of α-syn after CD co-transfection; format: cell-based, human; conditions: SHSY5Y cells, co-expression with α-syn-GFP
Method: as §1
Western blot: Wildtype and CD−/− cortex (n≧3 each genotype) were homogenized in 10 volumes of ice-cold lyses buffer (50 mM Tris-HCl pH 7.4, 175 mM NaCl, 5 mM EDTA), sonicated for 10 seconds, add TritonX-100 to 1% and incubated for 30 minutes on ice. Homogenates were then centrifuges at 15,000 g for 15 min at 4° C. to separate supernatants (fractions soluble in 1% TritonX-100) and pellets (TritonX-100-insoluble fractions) as described in Giasson et al., Neuron 34:521-33 (2002). Pellets were resuspended in lyses buffer containing 2% SDS. […]

“CD: principal lysosomal aspartate protease; human CD overexpressed by transfection or transgene (pCMV-CD)” was tested, and the “protection from α-syn-induced dopaminergic neurodegeneration” value (dopaminergic neurons) was “significantly protected against dopaminergic neurodegeneration; also recorded: protects worms from neurodegeneration”, the “percentage of worms exhibiting the wildtype neuronal complement of all 6 anterior DA neurons” value (dopaminergic neurons; 7 day old worms overexpressing α-syn in DA neurons, n=270, α-syn alone 15-16%) was 30% and the staurosporine-induced cell death (SHSY5Y cells; 2 μM staurosporine) was “ineffective; also recorded: does not reduce”. The chloroquine-induced cell death (SHSY5Y cells; 10 μM chloroquine) was “ineffective; also recorded: does not reduce”, the “A30P mutant α-syn-induced cell death” value (SHSY5Y cells; co-transfection with A30P mutant α-syn) was “protective; also recorded: reduced” and the “A53T mutant α-syn-induced cell death” value (SHSY5Y cells; co-transfection with A53T mutant α-syn) was “protective; also recorded: reduced”. The “Y125A mutant α-syn-induced cell death” value (SHSY5Y cells; co-transfection with Y125A mutant α-syn (CD cleavage site)) was “resists neuroprotection by elevated CD; also recorded: does not reduce”, the “protection against α-syn overexpression-induced cell death” value (SHSY5Y cells; wildtype GFP-α-syn co-transfection, 72 hours, viable cells by trypan blue) was “provided significant protection; also recorded: protected against α-syn overexpression-induced cell death” and the “truncation/cleavage of α-syn-GFP” value (α-syn) was “produced a cleavage product of α-syn-GFP; also recorded: resulted in truncation of α-syn-GFP”.
With “CL: related human cathepsin gene product, representative lysosomal cysteine protease, overexpressed in worms” the “protection from α-syn-induced dopaminergic neurodegeneration” value (dopaminergic neurons) was “did not attenuate dopaminergic neuron death; also recorded: did not have the same effect as the wildtype CD”.
For “D295R: enzymatic mutant of CD, human cDNA overexpressed in transgenic worms”, the “protection from α-syn-induced dopaminergic neurodegeneration” value (dopaminergic neurons) was “did not attenuate dopaminergic neuron death; also recorded: did not have the same effect as the wildtype CD”.
